# Measurements taken from patent US20130165520A1, “Hybrid Molecule Having Mixed Retinoic Acid Receptor Agonism and Histone Deacetylase Inhibitory Properties” (priority 2010, published 2013).
# Assays:
# purified human HDAC6 = purified human HDAC6 (Homo sapiens, UniProt Q9UBN7); assay: Standard fluorescence HDAC assay; type: biochemical; conditions: purified human enzyme, read-out: IC50 against HDAC6
# BT-20 = assay: Cell growth measurement; type: cell-based; conditions: BT-20 (ER-negative, HER2-negative, RA-insensitive)
# [1] = test system: NCI-60 panel of human tumor cell lines; assay: NCI-60 in vitro cancer screen (SRB), whole panel; type: cell-based; conditions: all cell lines, read-out: GC-50 values, range over all cell lines
# Experimental: Both RARs and HDACs are ubiquitously expressed in cell lines and tissue. It was therefore surmised that hybrid 3 could display cytotoxic activities in a wide variety of cell lines.
# The human tumor cell lines of the cancer screening panel are grown in RPMI 1640 medium containing 5% fetal bovine serum and 2 mM L-glutamine. For a typical screening experiment, cells are inoculated into 96 well microtiter plates in 100 μL at plating densities ranging from 5,000 to 40,000 cells/well depending on the doubling time of individual cell lines. After cell inoculation, the microtiter plates are incubated at 37° C., 5% CO2, 95% air and 100% relative humidity for 24 h prior to addition of experimental drugs. […]
# Following drug addition, the plates are incubated for an additional 48 h at 37° C., 5% CO2, 95% air, and 100% relative humidity. […] Bound stain is subsequently solubilized with 10 mM trizma base, and the absorbance is read on an automated plate reader at a wavelength of 515 nm. […] Using the absorbance measurements [time zero, (Tz), control growth, (C), and test growth in the presence of drug at the five concentration levels (Ti)], the percentage growth is calculated at each of the drug concentration levels. Percentage growth inhibition is calculated as: [(Ti-Tz)/(C-Tz)]×100 for concentrations for which Ti>/=Tz; and [(Ti-Tz)/Tz]×100 for concentrations for which Ti<Tz. […]
# RPMI-8226 [2] = conditions: RPMI-8226 (Leukemia); 48 h
# EKVX = EKVX (Non-Small cell lung cancer); 48 h
# SF-295 [3] = conditions: SF-295 (CNS); 48 h
# SNB-19 = SNB-19 (CNS); 48 h
# UACC-257 = UACC-257 (Melanoma); 48 h
# CCRF-CEM = assay: cells; conditions: Homo sapiens, 48 h
# RPMI-8226 [4] = assay: cells; conditions: Homo sapiens, RPMI-8226, 48 h
# HOP-92 = assay: cells; conditions: Homo sapiens, HOP-92, 48 h
# NCI-H460 = assay: cells; conditions: Homo sapiens, NCI-H460, 48 h
# SF-268 = assay: cells; conditions: Homo sapiens, SF-268, 48 h
# SF-295 [5] = assay: cells; conditions: Homo sapiens, SF-295, 48 h
# MDA-MB-435 = assay: cells; conditions: Homo sapiens, MDA-MB-435, 48 h
# UACC-62 = assay: cells; conditions: Homo sapiens, UACC-62, 48 h
# OVCAR-8 = assay: cells; conditions: Homo sapiens, OVCAR-8, 48 h
# PC-3 = assay: cells; conditions: Homo sapiens, PC-3, 48 h
# Sequence of purified human HDAC6 (Q9UBN7 whole entry): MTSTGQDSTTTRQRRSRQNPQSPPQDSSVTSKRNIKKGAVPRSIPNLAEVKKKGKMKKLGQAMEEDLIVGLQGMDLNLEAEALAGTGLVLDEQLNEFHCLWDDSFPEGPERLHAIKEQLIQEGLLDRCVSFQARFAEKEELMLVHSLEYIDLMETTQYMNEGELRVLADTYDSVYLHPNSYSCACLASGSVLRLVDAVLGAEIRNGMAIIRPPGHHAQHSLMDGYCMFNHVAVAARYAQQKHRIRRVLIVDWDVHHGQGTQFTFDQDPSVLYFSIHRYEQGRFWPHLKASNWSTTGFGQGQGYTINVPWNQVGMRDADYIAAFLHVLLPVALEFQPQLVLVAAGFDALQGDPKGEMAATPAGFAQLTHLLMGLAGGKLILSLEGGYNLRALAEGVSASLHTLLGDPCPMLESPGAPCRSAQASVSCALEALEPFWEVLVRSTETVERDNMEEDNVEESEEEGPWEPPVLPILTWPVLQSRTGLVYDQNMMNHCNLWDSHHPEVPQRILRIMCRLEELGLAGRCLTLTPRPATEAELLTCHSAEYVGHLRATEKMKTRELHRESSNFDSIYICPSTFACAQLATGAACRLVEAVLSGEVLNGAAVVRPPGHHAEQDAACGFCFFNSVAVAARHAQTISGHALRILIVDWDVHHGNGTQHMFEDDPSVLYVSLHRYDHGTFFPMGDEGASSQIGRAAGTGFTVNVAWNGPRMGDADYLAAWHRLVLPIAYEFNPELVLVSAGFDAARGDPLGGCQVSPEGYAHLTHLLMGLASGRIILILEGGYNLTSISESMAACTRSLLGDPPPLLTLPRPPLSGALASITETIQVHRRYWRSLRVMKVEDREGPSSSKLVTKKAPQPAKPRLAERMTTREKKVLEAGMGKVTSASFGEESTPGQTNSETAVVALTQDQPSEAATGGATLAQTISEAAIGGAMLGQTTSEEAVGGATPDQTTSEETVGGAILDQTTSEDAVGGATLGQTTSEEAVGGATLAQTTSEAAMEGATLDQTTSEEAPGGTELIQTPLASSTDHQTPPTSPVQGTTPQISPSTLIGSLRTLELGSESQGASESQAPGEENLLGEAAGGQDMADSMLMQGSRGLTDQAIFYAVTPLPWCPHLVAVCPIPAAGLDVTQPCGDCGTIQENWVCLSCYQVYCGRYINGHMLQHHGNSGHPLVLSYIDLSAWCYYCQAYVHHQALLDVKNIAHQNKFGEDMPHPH
smiles,measurement,setting,value
CC1(C)CCC(C)(C)c2cc(-c3ccc4cc(C(=O)NO)ccc4c3)ccc21 [hybrid 3],IC50,purified human HDAC6,0.148 µM
same,effect on cell growth,BT-20,active
same,IC50,[1],0.302 to 4.3 µM
same,TGI,RPMI-8226 [2],4.39 µM
same,TGI,EKVX,3.43 µM
same,TGI,SF-295 [3],1.77 µM
same,TGI,SNB-19,2.36 µM
same,TGI,UACC-257,7.34 µM
same,GI50,CCRF-CEM,0.306 µM
same,CC50,CCRF-CEM; read-out: LC50,> 100 µM
same,GI50,RPMI-8226 [4],0.689 µM
same,CC50,RPMI-8226 [4]; read-out: LC50,> 100 µM
same,GI50,HOP-92,1.93 µM
same,CC50,HOP-92; read-out: LC50,27.2 µM
same,GI50,NCI-H460,0.34 µM
same,CC50,NCI-H460; read-out: LC50,4.04 µM
same,GI50,SF-268,0.533 µM
same,CC50,SF-268; read-out: LC50,5.05 µM
same,GI50,SF-295 [5],0.385 µM
same,CC50,SF-295 [5]; read-out: LC50,6.11 µM
same,GI50,MDA-MB-435,0.879 µM
same,CC50,MDA-MB-435; read-out: LC50,6.8 µM
same,GI50,UACC-62,0.512 µM
same,CC50,UACC-62; read-out: LC50,5.17 µM
same,GI50,OVCAR-8,0.459 µM
same,CC50,OVCAR-8; read-out: LC50,5.12 µM
same,GI50,PC-3,1.14 µM
same,CC50,PC-3; read-out: LC50,21.5 µM
